Read-outs that look alike come from different tables or passages of the source.

The assay has as its target T1, Human pyruvate kinase R (PKR) (Homo sapiens, UniProt P30613).
T1 construct: Human pyruvate kinase R (PKR), residues 14-574; 6xHis-8xArg-SUMO (N, cleaved yes); host or cells: E. coli
Briefly: Biochemical assay for activation of pyruvate kinase R (Kinase-Glo luminescence, ATP generation). The note with it: for Emax: read-out: PKR % activation, maximal activation level achieved with each compound relative to the activation level achieved by AG-348 @ 10 μM. Put shortly: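 Recombinant human PKR (residues 14-574) expressed in E. coli with His-Arg-SUMO tag, tag cleaved, purified by Ni-NTA, anion exchange and size exclusion. Activation read as ATP generation by Kinase-Glo luminescence.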
A general note: Kinase-Glo reads ATP consumption through a luciferase reaction.

Setting [1] is: PKR AC50 (nM), 0.1 nM PKR, 0.3 mM ADP, 0.1 mM PEP, 1% DMSO.

T1 sequence (P30613 14-574): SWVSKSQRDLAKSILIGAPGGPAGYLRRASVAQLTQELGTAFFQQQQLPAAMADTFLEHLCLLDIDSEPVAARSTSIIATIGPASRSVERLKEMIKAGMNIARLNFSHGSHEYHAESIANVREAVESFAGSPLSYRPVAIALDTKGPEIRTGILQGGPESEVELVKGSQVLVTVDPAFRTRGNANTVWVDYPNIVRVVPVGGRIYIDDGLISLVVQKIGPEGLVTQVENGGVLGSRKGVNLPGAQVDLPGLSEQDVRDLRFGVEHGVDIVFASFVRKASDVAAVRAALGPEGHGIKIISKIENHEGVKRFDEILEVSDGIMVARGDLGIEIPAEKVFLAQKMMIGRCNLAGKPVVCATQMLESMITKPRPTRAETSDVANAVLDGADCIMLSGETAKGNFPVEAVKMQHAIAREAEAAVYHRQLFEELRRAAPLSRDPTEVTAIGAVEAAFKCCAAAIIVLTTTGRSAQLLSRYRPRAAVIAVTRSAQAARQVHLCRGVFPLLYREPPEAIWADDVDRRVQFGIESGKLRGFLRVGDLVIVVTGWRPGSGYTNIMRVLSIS

On to `CCc1ccccc1[C@H](CO)C(=O)N1Cc2cn(S(=O)(=O)c3cnn(CC(F)F)c3)nc2C1` [Compound 106, (R)-1-(2-((1-(2,2-difluoroethyl)-1H-pyrazol-4-yl)sulfonyl)-2,6-dihydropyrrolo[3,4-c]pyrazol-5(4H)-yl)-2-(2-ethylphenyl)-3-hydroxypropan-1-one], for which the Emax came out at 189%. For the same compound, the concentration at half-maximal activity (AC50) – broadly, the concentration giving half of the maximal activity seen – under setting [1] stood at 210 nM.
The corresponding values for `Cc1cn(CC(F)F)nc1S(=O)(=O)n1cc2c(n1)CN(C(=O)[C@@H](CO)c1ccccc1)C2` [Compound 77, (2R)-1-{2-[1-(2,2-difluoroethyl)-4-methylpyrazol-3-ylsulfonyl]-4H,6H-pyrrolo[3,4-c]pyrazol-5-yl}-3-hydroxy-2-phenylpropan-1-one] are 16% and 0.51 nM.
The corresponding values for `O=C([C@H](O)c1ccccc1F)N1Cc2cn(S(=O)(=O)c3cnn(CC(F)(F)F)c3)nc2C1` (single isomer, unassigned) [Compound 40] are 53% and 81 nM.
The corresponding values for `Cc1c(S(=O)(=O)n2cc3c(n2)CN(C(=O)[C@H](CO)c2ccccc2Cl)C3)cnn1CCF` [Compound 98, (2S)-2-(2-chlorophenyl)-1-{2-[1-(2-fluoroethyl)-5-methylpyrazol-4-ylsulfonyl]-4H,6H-pyrrolo[3,4-c]pyrazol-5-yl}-3-hydroxypropan-1-one] are 117% and 9.1 nM.
As to `CCn1ncc(S(=O)(=O)n2cc3c(n2)CN(C(=O)[C@@H](CO)c2ccccc2)C3)c1C(F)(F)F` [Compound 112, (2R)-1-{2-[1-ethyl-5-(trifluoromethyl)pyrazol-4-ylsulfonyl]-4H,6H-pyrrolo[3,4-c]pyrazol-5-yl}-3-hydroxy-2-phenylpropan-1-one], the Emax was 174%. Further, the activity under setting [1] was half-maximal at 3100 nM (AC50).
Turning to `O=C([C@H](CO)c1ccccc1)N1Cc2cn(S(=O)(=O)c3c[nH]c(C(F)(F)F)c3)nc2C1` [Compound 118, (2S)-3-hydroxy-2-phenyl-1-(2-{[5-(trifluoromethyl)-1H-pyrrol-3-yl]sulfonyl}-2H,4H,5H,6H-pyrrolo[3,4-c]pyrazol-5-yl)propan-1-one], half-maximal activity (AC50) was put at 160 nM and the Emax was 13%.
As to `O=C([C@H](CO)c1ccccc1)N1Cc2cn(S(=O)(=O)c3cnn(CC(F)(F)F)c3)nc2C1` [Compound 83, (2S)-3-hydroxy-2-phenyl-1-{2-[1-(2,2,2-trifluoroethyl)pyrazol-4-ylsulfonyl]-4H,6H-pyrrolo[3,4-c]pyrazol-5-yl}propan-1-one], the half-maximal activity concentration (AC50) was found to be 15 nM and the Emax stood at 69%.
The like results for `CCOc1ncc(S(=O)(=O)n2cc3c(n2)CN(C(=O)[C@H](CO)c2ccccc2)C3)s1` [Compound 119, (2S)-1-{2-[(2-ethoxy-1,3-thiazol-5-yl)sulfonyl]-2H,4H,5H,6H-pyrrolo[3,4-c]pyrazol-5-yl}-3-hydroxy-2-phenylpropan-1-one] were, in that order, 54 nM and 58%.
For the compound `Cc1cn(CC(F)(F)F)nc1S(=O)(=O)n1cc2c(n1)CN(C(=O)C1(c3ncccc3Cl)COC1)C2` [Compound 75, (3-(3-chloropyridin-2-yl)oxetan-3-yl)(2-((4-methyl-1-(2,2,2-trifluoroethyl)-1H-pyrazol-3-yl)sulfonyl)-2,6-dihydropyrrolo[3,4-c]pyrazol-5(4H)-yl)methanone], the Emax came out at 3%. The same compound displayed a half-maximal activity concentration (AC50) under setting [1] of 0.51 nM.
Turning to `CCn1cc(S(=O)(=O)n2cc3c(n2)CN(C(=O)[C@@H](CO)c2ccccc2)C3)c(C(F)(F)F)n1` [Compound 95, (2R)-1-{2-[1-ethyl-3-(trifluoromethyl)pyrazol-4-ylsulfonyl]-4H,6H-pyrrolo[3,4-c]pyrazol-5-yl}-3-hydroxy-2-phenylpropan-1-one], the Emax is 15%. Under setting [1], this compound showed a concentration at half-maximal activity (AC50) of 2900 nM.
With `O=C([C@H](OCCO)c1ccccc1F)N1Cc2cn(S(=O)(=O)c3ccn(CC(F)(F)F)n3)nc2C1` (single isomer, unassigned) [Compound 85], the half-maximal activity concentration (AC50) under setting [1] is greater than 10000 nM. Also, where the note is “maximal activation level achieved with each compound relative to the activation level achieved by AG-348 @ 10 μM”, the PKR % activation is recorded as 103%.
Regarding `O=C(N1Cc2cn(S(=O)(=O)c3cnn(CC(F)(F)F)c3)nc2C1)C1(c2ncccc2Cl)COC1` [Compound 52, (3-(3-chloropyridin-2-yl)oxetan-3-yl)(2-((1-(2,2,2-trifluoroethyl)-1H-pyrazol-4-yl)sulfonyl)-2,6-dihydropyrrolo[3,4-c]pyrazol-5(4H)-yl)methanone], the Emax was found to be 93%. Further, the activity under setting [1] was half-maximal at 24 nM (AC50).
As to `O=C([C@H](CO)c1ccccc1Cl)N1Cc2cn(S(=O)(=O)c3ncn(CC(F)F)n3)nc2C1` [Compound 107, (2S)-2-(2-chlorophenyl)-1-{2-[1-(2,2-difluoroethyl)-1,2,4-triazol-3-ylsulfonyl]-4H,6H-pyrrolo[3,4-c]pyrazol-5-yl}-3-hydroxypropan-1-one], the Emax was 89%. Under setting [1], this compound displayed an AC50 of 53 nM.
For the compound `COc1ccccc1[C@@H](CO)C(=O)N1Cc2cn(S(=O)(=O)c3cnn(CC(F)F)c3C)nc2C1` [Compound 103, (2S)-1-{2-[1-(2,2-difluoroethyl)-5-methylpyrazol-4-ylsulfonyl]-4H,6H-pyrrolo[3,4-c]pyrazol-5-yl}-3-hydroxy-2-(2-methoxyphenyl)propan-1-one], the Emax came to 101%. Moreover, the activity under setting [1] was half-maximal at 26 nM (AC50).
For `O=C([C@@H](O)c1ncccc1F)N1Cc2cn(S(=O)(=O)c3cnn(CC(F)F)c3)nc2C1` (single isomer, unassigned) [Compound 39], the AC50 amounted to 120 nM and the Emax came out at 90%.
Consider `O=C([C@@H](CO)c1ccccc1Cl)N1Cc2cn(S(=O)(=O)c3ncn(CC(F)F)n3)nc2C1` [Compound 108, (2R)-2-(2-chlorophenyl)-1-{2-[1-(2,2-difluoroethyl)-1,2,4-triazol-3-ylsulfonyl]-4H,6H-pyrrolo[3,4-c]pyrazol-5-yl}-3-hydroxypropan-1-one], for which the Emax turned out to be 62%. The activity under setting [1] was half-maximal at 3300 nM (AC50).
With `O=C([C@@H](O)c1ncccc1F)N1Cc2cn(S(=O)(=O)c3ccn(CC(F)F)n3)nc2C1` (single isomer, unassigned) [Compound 29], the Emax was 86%. This compound returned a concentration at half-maximal activity (AC50) under setting [1] of 420 nM.
The like results for `O=C(N1Cc2cn(S(=O)(=O)c3ccn(CC(F)F)n3)nc2C1)C1(c2ncccc2Cl)COC1` [Compound 64, 3-chloro-2-(3-{2-[1-(2,2-difluoroethyl)pyrazol-3-ylsulfonyl]-4H,6H-pyrrolo[3,4-c]pyrazole-5-carbonyl}oxetan-3-yl)pyridine] were, in that order, 100% and 12 nM.
The corresponding values for `CCn1ncc(S(=O)(=O)n2cc3c(n2)CN(C(=O)[C@H](CO)c2ccccc2)C3)c1C(F)(F)F` [Compound 111, (2S)-1-{2-[1-ethyl-5-(trifluoromethyl)pyrazol-4-ylsulfonyl]-4H,6H-pyrrolo[3,4-c]pyrazol-5-yl}-3-hydroxy-2-phenylpropan-1-one] are 42% and 1600 nM.
`Cc1noc(C)c1S(=O)(=O)n1cc2c(n1)CN(C(=O)[C@H](CO)c1ccccc1)C2` [Compound 16, (2S)-1-{2-[(3,5-dimethyl-1,2-oxazol-4-yl)sulfonyl]-2H,4H,5H,6H-pyrrolo[3,4-c]pyrazol-5-yl}-3-hydroxy-2-phenylpropan-1-one]: the Emax came out at 55%. Also, the activity under setting [1] was half-maximal at 1000 nM (AC50).
As for `O=C([C@H](CO)c1ccccc1F)N1Cc2cn(S(=O)(=O)c3cnn(CCC(F)(F)F)c3)nc2C1` [Compound 58, (S)-2-(2-fluorophenyl)-3-hydroxy-1-(2-((1-(3,3,3-trifluoropropyl)-1H-pyrazol-4-yl)sulfonyl)-2,6-dihydropyrrolo[3,4-c]pyrazol-5(4H)-yl)propan-1-one], the AC50 came out at 30 nM and the Emax was found to be 59%.
On to `O=C([C@H](CO)c1ccccc1F)N1Cc2cn(S(=O)(=O)c3ccn(CC(F)(F)F)n3)nc2C1` [Compound 62, (2S)-2-(2-fluorophenyl)-3-hydroxy-1-{2-[1-(2,2,2-trifluoroethyl)pyrazol-3-ylsulfonyl]-4H,6H-pyrrolo[3,4-c]pyrazol-5-yl}propan-1-one], for which the Emax is 60%. Under setting [1], this compound displayed an AC50 of 70 nM.
In the case of `O=C([C@@H](CO)c1cccc(F)c1Cl)N1Cc2cn(S(=O)(=O)c3cnn(CC(F)F)c3)nc2C1` [Compound 56, (2R)-2-(2-chloro-3-fluorophenyl)-1-{2-[1-(2,2-difluoroethyl)pyrazol-4-ylsulfonyl]-4H,6H-pyrrolo[3,4-c]pyrazol-5-yl}-3-hydroxypropan-1-one], the half-maximal activity concentration (AC50) turned out to be 170 nM and the Emax is 122%.
`O=C([C@H](CO)c1cccc(F)c1F)N1Cc2cn(S(=O)(=O)c3cnn(CC(F)(F)F)c3)nc2C1` [Compound 73, (2S)-2-(2,3-difluorophenyl)-3-hydroxy-1-{2-[1-(2,2,2-trifluoroethyl)pyrazol-4-ylsulfonyl]-4H,6H-pyrrolo[3,4-c]pyrazol-5-yl}propan-1-one]: the Emax is 66%. For the same compound, the concentration at half-maximal activity (AC50) under setting [1] was 17 nM.
The like results for `Cc1cn(CC(F)F)nc1S(=O)(=O)n1cc2c(n1)CN(C(=O)[C@H](CO)c1ccccc1)C2` [Compound 76, (2S)-1-{2-[1-(2,2-difluoroethyl)-4-methylpyrazol-3-ylsulfonyl]-4H,6H-pyrrolo[3,4-c]pyrazol-5-yl}-3-hydroxy-2-phenylpropan-1-one] were, in that order, 3% and 3800 nM.
For `O=C([C@H](CO)c1ccccc1)N1Cc2cn(S(=O)(=O)c3cnn(C4CCOC4)c3)nc2C1` (stereo partly drawn) [Compound 113, (2S)-3-hydroxy-1-(2-{[1-(oxolan-3-yl)-1H-pyrazol-4-yl]sulfonyl}-2H,4H,5H,6H-pyrrolo[3,4-c]pyrazol-5-yl)-2-phenylpropan-1-one], the half-maximal activity concentration (AC50) came out at 24 nM and the Emax is 47%.

These data come from patent US11566030B2, “Substituted 2,6-dihydropyrrolo[3,4-c]pyrazoles as pyruvate kinase activators” (priority 2021, dated 2023).
